Test results reported in patent US10221173B2, “Chemical compounds” (AstraZeneca AB, priority 2017, dated 2019).
≈ marks a conversion by molar mass, not a printed value.

How the values were obtained:
[1] = molecular target: recombinant human Estrogen Receptor alpha ligand binding domain (ER alpha-LBD (GST)) (Homo sapiens (Human), UniProt P03372); assay: ERα binding assay (LanthaScreen TR-FRET competition)
[2] = molecular target: Estrogen Receptor (ERα) in MCF-7 cells (Homo sapiens (Human), UniProt P03372); assay: MCF-7 ER down-regulation assay (immuno-fluorescence); assay type: cell-based
[3] = Log D (shake flask, 1-octanol/aqueous buffer); assay type: physicochemical; conditions: for logD: 1-octanol/aqueous buffer, pH 7.4, pH 7.4
[4] = Thermodynamic solubility (shake-flask); assay type: physicochemical; conditions: phosphate buffer pH 7.4, 24 hours
Experimental: The thermodynamic solubility of a research compound is measured under standard conditions. It is a shake-flask approach that uses 10 mM DMSO solutions which are supplied from the Compound Managements liquid store and is a high throughput method. The dried compounds are equilibrated in an aqueous phosphate buffer (pH 7.4) for 24 hours at 25° C., the portion with the dissolved compound is then separated from the remains. The solutions are analyzed and quantified using UPLC/MS/MS, QC-samples are incorporated in each assay-run to ensure the quality of the assay.

[5] = Human plasma protein binding (equilibrium dialysis); assay type: in vitro ADME
Experimental: The automated equilibrium dialysis assay in human plasma uses the RED (Rapid Equilibrium Dialysis) Device and sample handling. The assay generally runs over two to three days including delivery of results. After dialysis for 18 hours, plasma and buffer samples are prepared for analysis by liquid chromatography and mass spectrometry. Samples are generally tested in singlicates and quantified by LC/MSMS by using a 7-point calibration curve in plasma. The compounds are pooled together in plasma pools up to 10 compounds. Three reference compounds are used in each run, Propranolol, Metoprolol and Warfarin. Warfarin is used as a control in each pool and Propranolol and Metoprolol are placed randomly in each run. An in-house Excel macro is used for preparation of files for the robot and the mass spectrometer and is also used for the calculations of fraction unbound (fu %) in plasma.

hERG potassium channel = hERG potassium channel (Homo sapiens (Human), UniProt Q12809)
[6] = aqueous phosphate buffer, 25 °C, pH 7.4, aqueous buffer, thermodynamic from solid

Chain of recombinant human Estrogen Receptor alpha ligand binding domain (ER alpha-LBD (GST)) (P03372 307-554): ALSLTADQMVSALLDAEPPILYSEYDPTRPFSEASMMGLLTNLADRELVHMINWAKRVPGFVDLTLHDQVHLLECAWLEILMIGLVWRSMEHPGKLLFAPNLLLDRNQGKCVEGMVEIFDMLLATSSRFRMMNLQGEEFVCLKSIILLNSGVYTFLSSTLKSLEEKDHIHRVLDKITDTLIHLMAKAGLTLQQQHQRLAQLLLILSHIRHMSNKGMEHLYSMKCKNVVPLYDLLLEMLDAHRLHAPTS
Chain of hERG potassium channel (Q12809 whole entry): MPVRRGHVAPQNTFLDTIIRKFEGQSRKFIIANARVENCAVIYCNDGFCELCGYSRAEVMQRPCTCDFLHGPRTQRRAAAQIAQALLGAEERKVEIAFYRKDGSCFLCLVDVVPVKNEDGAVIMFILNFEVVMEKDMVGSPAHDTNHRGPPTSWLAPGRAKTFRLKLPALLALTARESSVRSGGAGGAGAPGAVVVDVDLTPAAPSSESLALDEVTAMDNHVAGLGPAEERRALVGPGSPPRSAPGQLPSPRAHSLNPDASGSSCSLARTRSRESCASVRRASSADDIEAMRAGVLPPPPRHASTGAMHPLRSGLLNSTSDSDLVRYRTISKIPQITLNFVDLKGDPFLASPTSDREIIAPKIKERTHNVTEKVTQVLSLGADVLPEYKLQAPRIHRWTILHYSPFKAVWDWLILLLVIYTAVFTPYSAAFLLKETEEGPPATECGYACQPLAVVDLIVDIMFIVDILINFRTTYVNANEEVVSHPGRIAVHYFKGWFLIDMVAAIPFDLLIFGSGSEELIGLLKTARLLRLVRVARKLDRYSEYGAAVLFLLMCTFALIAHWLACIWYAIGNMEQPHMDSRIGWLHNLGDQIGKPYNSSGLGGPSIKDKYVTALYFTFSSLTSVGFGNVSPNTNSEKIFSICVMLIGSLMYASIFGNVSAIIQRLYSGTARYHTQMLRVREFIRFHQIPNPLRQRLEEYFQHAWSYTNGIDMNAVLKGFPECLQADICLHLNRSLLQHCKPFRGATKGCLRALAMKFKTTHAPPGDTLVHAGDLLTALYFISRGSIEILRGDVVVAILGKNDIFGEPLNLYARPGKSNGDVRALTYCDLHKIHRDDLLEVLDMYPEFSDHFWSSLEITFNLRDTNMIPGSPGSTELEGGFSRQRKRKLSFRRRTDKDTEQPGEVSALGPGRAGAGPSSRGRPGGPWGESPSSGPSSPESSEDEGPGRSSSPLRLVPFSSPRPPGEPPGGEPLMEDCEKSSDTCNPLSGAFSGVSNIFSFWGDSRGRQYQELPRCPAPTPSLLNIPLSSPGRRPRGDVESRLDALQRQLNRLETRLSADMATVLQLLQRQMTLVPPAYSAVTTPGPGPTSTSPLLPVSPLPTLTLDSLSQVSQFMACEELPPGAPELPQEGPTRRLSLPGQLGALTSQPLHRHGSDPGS
Chain of Estrogen Receptor (ERα) in MCF-7 cells (P03372 whole entry): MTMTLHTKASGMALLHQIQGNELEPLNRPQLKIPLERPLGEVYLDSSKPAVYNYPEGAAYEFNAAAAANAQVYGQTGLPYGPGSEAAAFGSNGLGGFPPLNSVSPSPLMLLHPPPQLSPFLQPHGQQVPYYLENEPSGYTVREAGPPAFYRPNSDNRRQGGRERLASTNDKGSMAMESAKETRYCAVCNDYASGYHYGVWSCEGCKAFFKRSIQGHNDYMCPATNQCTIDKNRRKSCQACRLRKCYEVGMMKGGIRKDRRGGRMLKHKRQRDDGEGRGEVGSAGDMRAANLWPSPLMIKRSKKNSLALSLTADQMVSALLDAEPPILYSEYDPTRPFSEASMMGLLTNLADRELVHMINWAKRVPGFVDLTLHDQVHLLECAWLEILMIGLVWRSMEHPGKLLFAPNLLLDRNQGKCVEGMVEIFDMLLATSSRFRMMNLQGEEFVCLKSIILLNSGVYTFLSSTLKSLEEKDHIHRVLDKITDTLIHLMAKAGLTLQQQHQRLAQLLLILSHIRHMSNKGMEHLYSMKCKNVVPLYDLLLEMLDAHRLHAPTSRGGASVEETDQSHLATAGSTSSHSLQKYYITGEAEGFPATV

| SMILES | IC50 [1] [nM] | IC50 [2] [nM] | logD [3] | solubility at 24 h [4, 6] [µM] | Human plasma protein binding (% free) [5] [% free] | IC50 (hERG potassium channel) [nM] | LogD pH 7.4 ([3]; pH 7.4) | solubility at 24 h ([4]; 25° C.) [µM] | % downregulation (in brackets) ([2]; maximum downregulation) |
| --- | --- | --- | --- | --- | --- | --- | --- | --- | --- |
| COc1nnc(OCCNCCCF)cc1[C@@H]1c2[nH]c3ccccc3c2C[C@@H](C)N1CC(F)(F)F [Example 112, 3-fluoro-N-(2-((6-methoxy-5-((1R,3R)-3-methyl-2-(2,2,2-trifluoroethyl)-2,3,4,9-tetrahydro-1H-pyrido[3,4-b]indol-1-yl)pyridazin-3-yl)oxy)ethyl)propan-1-amine] | 2 | 0.95 | 3.2 | 92 (≈ 45.6 µg/mL) | 1.5 | 19000 | – | – | – |
| Cc1c(OCCN(C)CCCF)ncc(F)c1[C@@H]1c2[nH]c3ccccc3c2C[C@@H](C)N1C(C)CC(=O)O (single isomer, unassigned) [Example 159] | 0.9 | 0.18 | – | – | 13 | > 40000 | 1.7 | >1000 | – |
| Cc1c(OCCNCCCF)ncnc1[C@@H]1c2[nH]c3ccccc3c2C[C@@H](C)N1CC(F)(F)F [Example 114, 3-fluoro-N-(2-((5-methyl-6-((1S,3R)-3-methyl-2-(2,2,2-trifluoroethyl)-2,3,4,9-tetrahydro-1H-pyrido[3,4-b]indol-1-yl)pyrimidin-4-yl)oxy)ethyl)propan-1-amine] | 0.74 | 0.2 | 3.3 | 276 (≈ 132 µg/mL) | 1.7 | 5900 | – | – | – |
| COc1ccc(OCCNCCCF)cc1[C@@H]1c2[nH]c3ccccc3c2C[C@@H](C)N1C[C@H](C)C(=O)O [Example 53, (S)-3-((1R,3R)-1-(5-(2-((3-fluoropropyl)amino)ethoxy)-2-methoxyphenyl)-3-methyl-1,3,4,9-tetrahydro-2H-pyrido[3,4-b]indol-2-yl)-2-methylpropanoic acid] | 150 | – | 0.1 | > 1000 | 80 | > 40000 | – | – | — (40%) |
| C[C@@H]1Cc2c([nH]c3ccccc23)[C@@H](c2nccc(NCCNCCCF)c2F)N1CC(F)(F)F [Example 94, N1-(3-fluoro-2-((1S,3R)-3-methyl-2-(2,2,2-trifluoroethyl)-2,3,4,9-tetrahydro-1H-pyrido[3,4-b]indol-1-yl)pyridin-4-yl)-N2-(3-fluoropropyl)ethane-1,2-diamine] | 3.6 | 9.2 | 2.4 | 698 (≈ 336 µg/mL) | 7 | 9900 | – | – | – |
| Cc1c(OCCN(C)CCCF)ncc(F)c1[C@@H]1c2[nH]c3ccccc3c2C[C@@H](C)N1C(C)CC(=O)O (single isomer, unassigned) [Example 158] | 1.5 | 1 | 1.8 | > 1000 | 21 | > 40000 | – | – | – |
| COc1ccc(OCCNCCCF)c(F)c1[C@@H]1c2[nH]c3ccc(F)cc3c2C[C@@H](C)N1CC(F)(F)CO [Example 86, 2,2-difluoro-3-((1R,3R)-6-fluoro-1-(2-fluoro-3-(2-((3-fluoropropyl)amino)ethoxy)-6-methoxyphenyl)-3-methyl-1,3,4,9-tetrahydro-2H-pyrido[3,4-b]indol-2-yl)propan-1-ol] | 0.86 | 0.17 | 2.9 | 385 (≈ 209 µg/mL) | 2.6 | 3900 | – | – | – |
| Cc1ccc2[nH]c3c(c2c1)C[C@@H](C)N(CC(F)(F)CO)[C@@H]3c1c(F)cnc(OCCNCCCF)c1F [Example 66, 3-((1R,3R)-1-(3,5-difluoro-2-(2-((3-fluoropropyl)amino)ethoxy)pyridin-4-yl)-3,6-dimethyl-1,3,4,9-tetrahydro-2H-pyrido[3,4-b]indol-2-yl)-2,2-difluoropropan-1-ol] | 0.71 | 0.34 | 3 | 441 (≈ 232 µg/mL) | 1.3 | 5400 | – | – | – |
| C[C@@H]1Cc2c([nH]c3ccccc23)[C@@H](c2cccc(OCCNCCCF)c2Cl)N1CC(F)(F)F [Example 25, N-(2-(2-chloro-3-((1R,3R)-3-methyl-2-(2,2,2-trifluoroethyl)-2,3,4,9-tetrahydro-1H-pyrido[3,4-b]indol-1-yl)phenoxy)ethyl)-3-fluoropropan-1-amine] | 0.88 | 0.25 | 4.3 | 19 (≈ 9.46 µg/mL) | 0.080 | 5200 | – | – | – |
| Cc1c([C@@H]2c3[nH]c4ccccc4c3C[C@@H](C)N2C[C@@H](C)C(=O)O)ccnc1OCCN(C)CCCF [Example 161, (R)-3-((1R,3R)-1-(2-(2-((3-fluoropropyl)(methyl)amino)ethoxy)-3-methylpyridin-4-yl)-3-methyl-1,3,4,9-tetrahydro-2H-pyrido[3,4-b]indol-2-yl)-2-methylpropanoic acid] | 1.7 | 1.1 | 1.3 | > 1000 | 6.3 | > 40000 | – | – | – |
| C[C@@H]1Cc2c([nH]c3ccc(F)cc23)[C@@H](c2c(F)cnc(OCCN(C)CCCF)c2F)N1CC(F)(F)CO [Example 67, 3-((1R,3R)-1-(3,5-difluoro-2-(2-((3-fluoropropyl)(methyl)amino)ethoxy)pyridin-4-yl)-6-fluoro-3-methyl-1,3,4,9-tetrahydro-2H-pyrido[3,4-b]indol-2-yl)-2,2-difluoropropan-1-ol] | 0.7 | 0.099 | 4 | 80.6 (≈ 43.9 µg/mL) | 1.6 | 5700 | – | – | – |
| C[C@@H]1Cc2c([nH]c3ccccc23)[C@@H](c2c(F)c(F)cc(OCCNCCCF)c2F)N1CC(F)(F)F [Example 32, 3-fluoro-N-(2-(2,4,5-trifluoro-3-((1R,3R)-3-methyl-2-(2,2,2-trifluoroethyl)-2,3,4,9-tetrahydro-1H-pyrido[3,4-b]indol-1-yl)phenoxy)ethyl)propan-1-amine] | 2.7 | 0.38 | 4.1 | 55 (≈ 28.5 µg/mL) | 0.52 | 5800 | – | – | – |
| C[C@@H]1Cc2c([nH]c3ccccc23)[C@@H](c2cc(F)cc(OCCNCCCF)c2F)N1CC(F)(F)F [Example 31, N-(2-(2,5-difluoro-3-((1R,3R)-3-methyl-2-(2,2,2-trifluoroethyl)-2,3,4,9-tetrahydro-1H-pyrido[3,4-b]indol-1-yl)phenoxy)ethyl)-3-fluoropropan-1-amine] | 5.4 | 7.2 | 4.1 | 40 (≈ 20 µg/mL) | 0.41 | 11000 | – | – | – |
| C[C@@H]1Cc2c([nH]c3ccccc23)[C@@](C)(c2cccc(OCCNCCCF)c2)N1CC(F)(F)F [Example 75, N-(2-(3-((1R,3R)-1,3-dimethyl-2-(2,2,2-trifluoroethyl)-2,3,4,9-tetrahydro-1H-pyrido[3,4-b]indol-1-yl)phenoxy)ethyl)-3-fluoropropan-1-amine] | 52 | 58 | 4.5 | 0.9 (≈ 0.43 µg/mL) | 0.08 | 7700 | – | – | – |
| Cc1c(NCCNCCCF)ccnc1[C@@H]1c2[nH]c3ccccc3c2C[C@@H](C)N1CC(F)(F)F [Example 95, N1-(3-fluoropropyl)-N2-(3-methyl-2-((1S,3R)-3-methyl-2-(2,2,2-trifluoroethyl)-2,3,4,9-tetrahydro-1H-pyrido[3,4-b]indol-1-yl)pyridin-4-yl)ethane-1,2-diamine] | 5.6 | 3.3 | 2.5 | 869 (≈ 415 µg/mL) | 4.6 | 7200 | – | – | – |
| C[C@@H]1Cc2c([nH]c3ccccc23)[C@@H](c2cc(OCCNCCCF)cc(F)c2F)N1CC(F)(F)F [Example 30, N-(2-(3,4-difluoro-5-((1R,3R)-3-methyl-2-(2,2,2-trifluoroethyl)-2,3,4,9-tetrahydro-1H-pyrido[3,4-b]indol-1-yl)phenoxy)ethyl)-3-fluoropropan-1-amine] | 2.1 | 0.32 | 4.1 | 39 (≈ 19.5 µg/mL) | 0.72 | 2300 | – | – | – |
| C[C@@H]1Cc2c([nH]c3ccccc23)[C@@H](c2cccc(OCCNCCCF)c2C(F)F)N1CC(F)(F)CO [Example 68, 3-((1R,3R)-1-(2-(difluoromethyl)-3-(2-((3-fluoropropyl)amino)ethoxy)phenyl)-3-methyl-1,3,4,9-tetrahydro-2H-pyrido[3,4-b]indol-2-yl)-2,2-difluoropropan-1-ol] | 0.69 | 0.095 | 3.2 | 56.6 (≈ 29.7 µg/mL) | 1.2 | 2000 | – | – | – |
| C[C@@H]1Cc2c([nH]c3ccccc23)[C@@H](c2cc(OCCNCCCF)ccc2CO)N1CC(F)(F)F [Example 70, (4-(2-((3-fluoropropyl)amino)ethoxy)-2-((1R,3R)-3-methyl-2-(2,2,2-trifluoroethyl)-2,3,4,9-tetrahydro-1H-pyrido[3,4-b]indol-1-yl)phenyl)methanol] | 1300 | 180 | 2.2 | 231 (≈ 114 µg/mL) | 23 | 6300 | – | – | – |
